In the experiment the test system is T1, tubulin.
T1 construct: gene TUBB2B
Description: turbidimetric tubulin polymerization assay ([…] nm). It counts as biochemical. Particulars: tubulin 10 µM.

What is called IC50 is the concentration that gives 50% inhibition. A lower IC50 goes with inhibition by little substance. In turn, `COc1ccc(OC)c(/C=C/C(=O)c2ccc(OC)cc2OC)c1` [compound 1, hit 1] yielded an IC50 of 3.7 ± 0.5 µM.

As for `COc1ccc(/C=C\c2cc(OC)c(OC)c(OC)c2)cc1O` [combretastatin A-4], it took […] to reach half-maximal inhibition (IC50).

These data come from paper PMC6749218, “Structure-Based Pharmacophore Design and Virtual Screening for Novel Tubulin Inhibitors with Potential Anticancer Activity” (Molecules, 2019).
